# Results reported in ChEMBL document CHEMBL5465560, “Selectivity Literature for EUbOPEN Chemogenomic Library” (2024).
# Experiments:
# [1] = molecular target: Homeodomain-interacting protein kinase 3 (Homo sapiens, UniProt Q9H422); assay: Selectivity interaction (KinomeScan (DiscoverX)) EUB0000655a HIPK3; details: at 10 µM
# [2] = molecular target: T1, Protein kinase C iota type (Homo sapiens) (UniProt P41743); assay: Selectivity interaction (KinomeScan (DiscoverX)) EUB0001079a PRKCI; details: at 1 µM
# T1 sequence (whole entry): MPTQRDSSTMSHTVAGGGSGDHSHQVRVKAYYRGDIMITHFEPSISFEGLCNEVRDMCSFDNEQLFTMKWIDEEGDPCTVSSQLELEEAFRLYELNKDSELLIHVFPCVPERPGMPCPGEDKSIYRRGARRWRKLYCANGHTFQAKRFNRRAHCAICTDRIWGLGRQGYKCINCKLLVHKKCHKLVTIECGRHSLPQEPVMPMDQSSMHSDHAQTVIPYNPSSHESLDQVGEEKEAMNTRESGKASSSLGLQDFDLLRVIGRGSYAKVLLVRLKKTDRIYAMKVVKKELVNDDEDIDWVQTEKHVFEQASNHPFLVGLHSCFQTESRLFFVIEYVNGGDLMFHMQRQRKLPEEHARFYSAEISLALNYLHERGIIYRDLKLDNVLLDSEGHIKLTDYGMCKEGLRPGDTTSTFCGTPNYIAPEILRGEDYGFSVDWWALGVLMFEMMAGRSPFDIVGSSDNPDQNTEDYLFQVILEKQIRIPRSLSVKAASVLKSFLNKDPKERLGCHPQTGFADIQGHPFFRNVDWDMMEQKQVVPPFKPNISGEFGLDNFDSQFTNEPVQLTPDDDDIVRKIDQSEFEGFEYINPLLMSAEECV
# [3] = tested on: Tyrosine-protein kinase ABL1 (Homo sapiens), P00519 [Q252H]; assay: Selectivity interaction (KinomeScan (DiscoverX)) EUB0000618a ABL1; details: at 10 µM
# [4] = molecular target: Protein kinase C alpha type (Homo sapiens, UniProt P17252); assay: Selectivity interaction (SelectScreen profiling (Invitrogen)) EUB0000607a PRKCA; details: at 2 µM
# [5] = molecular target: T2, Membrane-associated tyrosine- and threonine-specific cdc2-inhibitory kinase (Homo sapiens) (UniProt Q99640); assay: Selectivity interaction (KinomeScan (DiscoverX)) EUB0000607a PKMYT1; details: at 10 µM
# T2 sequence (whole entry): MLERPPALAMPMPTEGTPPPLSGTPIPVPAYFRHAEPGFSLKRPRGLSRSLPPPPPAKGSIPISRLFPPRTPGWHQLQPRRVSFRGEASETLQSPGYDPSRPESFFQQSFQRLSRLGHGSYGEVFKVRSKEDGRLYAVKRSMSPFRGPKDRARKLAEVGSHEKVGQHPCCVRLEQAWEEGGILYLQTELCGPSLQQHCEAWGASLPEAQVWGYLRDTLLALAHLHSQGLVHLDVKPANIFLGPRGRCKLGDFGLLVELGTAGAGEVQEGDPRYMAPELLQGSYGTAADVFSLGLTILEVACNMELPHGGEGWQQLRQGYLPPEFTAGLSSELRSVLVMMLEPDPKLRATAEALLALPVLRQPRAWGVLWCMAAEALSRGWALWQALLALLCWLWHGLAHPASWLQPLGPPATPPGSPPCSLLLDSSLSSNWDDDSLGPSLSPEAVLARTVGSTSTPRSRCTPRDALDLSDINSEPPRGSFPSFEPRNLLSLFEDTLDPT
# [6] = tested on: Epidermal growth factor receptor (Homo sapiens), P00533 [L858R,T790M]; details: at 10 µM
# [7] = molecular target: T3, Serine/threonine-protein kinase STK11 (Homo sapiens) (UniProt Q15831); details: at 10 µM
# T3 sequence (whole entry): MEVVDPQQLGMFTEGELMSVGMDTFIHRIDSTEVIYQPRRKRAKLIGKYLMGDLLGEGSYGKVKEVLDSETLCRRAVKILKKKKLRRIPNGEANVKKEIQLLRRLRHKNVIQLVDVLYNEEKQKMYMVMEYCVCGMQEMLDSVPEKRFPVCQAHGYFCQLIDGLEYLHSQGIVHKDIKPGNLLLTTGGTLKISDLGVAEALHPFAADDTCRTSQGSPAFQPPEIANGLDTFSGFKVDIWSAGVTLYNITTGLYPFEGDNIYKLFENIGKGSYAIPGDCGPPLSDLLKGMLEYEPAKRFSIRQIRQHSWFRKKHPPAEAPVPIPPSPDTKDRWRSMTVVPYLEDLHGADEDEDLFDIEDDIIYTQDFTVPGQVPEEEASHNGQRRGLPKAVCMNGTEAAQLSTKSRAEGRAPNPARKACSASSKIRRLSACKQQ
# [8] = molecular target: T4, Serine/threonine-protein kinase Nek8 (Homo sapiens) (UniProt Q86SG6); assay: Selectivity interaction (LanthaScreen Eu Kinase Binding Assay) EUB0001632a NEK8; details: at 10 µM
# T4 sequence (whole entry): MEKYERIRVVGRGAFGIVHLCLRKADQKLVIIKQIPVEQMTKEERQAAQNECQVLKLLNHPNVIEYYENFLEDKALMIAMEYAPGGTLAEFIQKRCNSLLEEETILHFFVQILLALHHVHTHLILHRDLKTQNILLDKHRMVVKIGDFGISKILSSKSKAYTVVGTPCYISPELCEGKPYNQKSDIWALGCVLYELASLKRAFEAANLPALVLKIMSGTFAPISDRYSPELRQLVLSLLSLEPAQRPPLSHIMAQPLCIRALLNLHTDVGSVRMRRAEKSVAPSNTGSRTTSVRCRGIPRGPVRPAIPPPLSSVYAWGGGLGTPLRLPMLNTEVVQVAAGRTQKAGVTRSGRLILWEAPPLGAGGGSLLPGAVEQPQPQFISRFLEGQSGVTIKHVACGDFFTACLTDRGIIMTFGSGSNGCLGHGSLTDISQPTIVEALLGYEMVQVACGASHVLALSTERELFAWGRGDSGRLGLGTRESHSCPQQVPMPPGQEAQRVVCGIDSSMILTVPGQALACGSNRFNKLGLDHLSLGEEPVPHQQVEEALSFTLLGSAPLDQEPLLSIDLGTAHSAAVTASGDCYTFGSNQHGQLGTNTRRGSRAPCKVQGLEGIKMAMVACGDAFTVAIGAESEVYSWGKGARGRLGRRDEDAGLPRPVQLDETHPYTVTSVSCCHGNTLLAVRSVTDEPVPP
# Chain of Homeodomain-interacting protein kinase 3 (Q9H422 whole entry, looked up): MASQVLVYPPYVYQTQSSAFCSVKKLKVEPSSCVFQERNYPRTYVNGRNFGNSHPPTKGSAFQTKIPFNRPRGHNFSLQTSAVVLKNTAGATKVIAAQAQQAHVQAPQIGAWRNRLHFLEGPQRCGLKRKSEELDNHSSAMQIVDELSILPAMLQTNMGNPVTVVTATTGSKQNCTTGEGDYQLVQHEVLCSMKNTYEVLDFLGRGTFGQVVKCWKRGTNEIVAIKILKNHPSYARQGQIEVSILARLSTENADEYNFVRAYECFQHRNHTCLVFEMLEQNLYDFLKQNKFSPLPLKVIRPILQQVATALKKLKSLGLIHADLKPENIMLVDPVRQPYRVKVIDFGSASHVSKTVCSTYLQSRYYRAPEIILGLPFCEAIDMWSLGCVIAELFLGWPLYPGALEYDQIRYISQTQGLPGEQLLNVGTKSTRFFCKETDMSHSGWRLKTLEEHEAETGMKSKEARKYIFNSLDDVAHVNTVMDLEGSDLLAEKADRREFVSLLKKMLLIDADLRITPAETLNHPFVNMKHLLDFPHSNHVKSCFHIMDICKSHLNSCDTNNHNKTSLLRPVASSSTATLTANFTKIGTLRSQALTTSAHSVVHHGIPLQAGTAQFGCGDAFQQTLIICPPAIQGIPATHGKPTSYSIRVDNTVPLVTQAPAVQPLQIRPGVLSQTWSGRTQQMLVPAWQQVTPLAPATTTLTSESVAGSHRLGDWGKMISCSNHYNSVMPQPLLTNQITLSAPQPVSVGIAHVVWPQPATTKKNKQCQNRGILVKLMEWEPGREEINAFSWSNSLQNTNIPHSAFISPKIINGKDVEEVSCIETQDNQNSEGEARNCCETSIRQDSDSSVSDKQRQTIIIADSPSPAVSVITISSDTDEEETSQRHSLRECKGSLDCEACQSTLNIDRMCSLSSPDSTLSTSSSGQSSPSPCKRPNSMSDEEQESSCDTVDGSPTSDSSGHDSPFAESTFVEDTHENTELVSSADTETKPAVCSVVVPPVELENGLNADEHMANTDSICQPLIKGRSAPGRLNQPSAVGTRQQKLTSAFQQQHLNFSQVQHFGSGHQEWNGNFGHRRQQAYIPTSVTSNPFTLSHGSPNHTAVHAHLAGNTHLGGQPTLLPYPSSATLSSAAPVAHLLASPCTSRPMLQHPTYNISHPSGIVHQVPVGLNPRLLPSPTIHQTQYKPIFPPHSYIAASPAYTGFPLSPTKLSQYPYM
# Chain of Epidermal growth factor receptor (Homo sapiens), P00533 [L858R,T790M] (P00533 whole entry T790M/L858R, looked up): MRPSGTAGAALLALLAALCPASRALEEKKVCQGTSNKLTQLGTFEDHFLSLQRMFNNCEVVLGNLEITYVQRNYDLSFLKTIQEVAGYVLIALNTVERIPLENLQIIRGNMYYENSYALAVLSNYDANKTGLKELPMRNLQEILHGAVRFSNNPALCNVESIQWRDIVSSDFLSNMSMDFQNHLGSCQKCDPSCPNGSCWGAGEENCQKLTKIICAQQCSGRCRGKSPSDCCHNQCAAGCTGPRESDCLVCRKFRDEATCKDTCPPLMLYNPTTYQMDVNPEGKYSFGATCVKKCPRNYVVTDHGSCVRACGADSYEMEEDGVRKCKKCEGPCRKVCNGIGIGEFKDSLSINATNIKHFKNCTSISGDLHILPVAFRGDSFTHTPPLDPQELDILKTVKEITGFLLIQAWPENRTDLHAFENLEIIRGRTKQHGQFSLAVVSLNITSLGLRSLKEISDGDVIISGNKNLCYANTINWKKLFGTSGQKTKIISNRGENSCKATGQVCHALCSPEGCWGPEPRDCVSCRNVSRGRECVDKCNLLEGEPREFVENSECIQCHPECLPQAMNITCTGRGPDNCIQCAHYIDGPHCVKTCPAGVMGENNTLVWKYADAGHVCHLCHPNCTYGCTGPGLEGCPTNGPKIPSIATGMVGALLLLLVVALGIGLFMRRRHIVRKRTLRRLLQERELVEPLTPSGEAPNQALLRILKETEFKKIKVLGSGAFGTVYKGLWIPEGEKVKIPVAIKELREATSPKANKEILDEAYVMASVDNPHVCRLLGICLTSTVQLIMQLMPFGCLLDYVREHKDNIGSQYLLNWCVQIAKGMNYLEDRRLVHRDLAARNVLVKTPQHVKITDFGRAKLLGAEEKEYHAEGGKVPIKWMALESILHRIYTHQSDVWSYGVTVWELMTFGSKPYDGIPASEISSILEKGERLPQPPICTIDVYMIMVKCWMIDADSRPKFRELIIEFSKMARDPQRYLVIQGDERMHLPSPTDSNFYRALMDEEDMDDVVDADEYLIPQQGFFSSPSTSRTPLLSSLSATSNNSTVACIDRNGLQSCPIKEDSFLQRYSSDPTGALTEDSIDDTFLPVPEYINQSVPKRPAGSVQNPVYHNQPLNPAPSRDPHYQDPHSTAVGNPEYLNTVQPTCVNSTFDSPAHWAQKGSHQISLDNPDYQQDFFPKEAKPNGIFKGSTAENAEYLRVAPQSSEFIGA
smiles,measurement,setting,value
CN(C)CCOc1ccc(-c2nc(-c3ccncc3)c(-c3ccc4c(c3)CC/C4=N\O)[nH]2)cc1,% of control,[1],62%
Nc1cnc(N2CCc3cc(S(=O)(=O)Nc4c(F)cc(Cl)cc4F)cc(N4CCCC4=O)c32)nc1 [TP-020n],% of control,[2],100%
O[C@H]1CC[C@H](Nc2ncc3nc(Nc4c(F)cc(F)cc4F)n([C@H]4CCOC4)c3n2)CC1,% of control,[3],36%
CNC(=O)Nc1ccc(-c2nc(N3CC4CCC(C3)O4)c3cnn(C4CCC5(CC4)OCCO5)c3n2)cc1,% of inhibition,[4],10%
same,% of control,[5],75%
Cc1cc([C@@H](C)Nc2ccccc2C(=O)O)c2nc(N3CCOCC3)cc(=O)n2c1 [AZD-6482],% of control,[6],99%
same,% of control,[7],98%
Cn1cc(-n2cnc3c(NCc4nc5cc(Cl)c(Cl)cc5[nH]4)nc(N4CCOCC4)nc32)cn1,% of inhibition,[8],-38.3%
